Reference: patent US7504420B2, “Compounds which inhibit beta-secretase activity and methods of use” (CoMentis, Inc., priority 2005, dated 2009)
Like-named read-outs stand apart in the source and are kept apart here.

Key:
[1] = target: memapsin 2 (Homo sapiens, UniProt P56817); assay: Inhibition of memapsin 2 catalytic activity (Ki); type: biochemical; details: memapsin 2, pH 4, 37° C.; read-out: M2K
In short: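 Run at 37 °C and pH 4: compound and enzyme pre-incubated 20 min before FS-2 fluorogenic substrate started hydrolysis,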

[2] = target: cathepsin D (Homo sapiens, UniProt P07339); assay: Inhibition of cathepsin D catalytic activity (Ki); type: biochemical; details: pH 4.0, 37° C., read-out: CDK
Sequence of cathepsin D (P07339 65-412, species assumed): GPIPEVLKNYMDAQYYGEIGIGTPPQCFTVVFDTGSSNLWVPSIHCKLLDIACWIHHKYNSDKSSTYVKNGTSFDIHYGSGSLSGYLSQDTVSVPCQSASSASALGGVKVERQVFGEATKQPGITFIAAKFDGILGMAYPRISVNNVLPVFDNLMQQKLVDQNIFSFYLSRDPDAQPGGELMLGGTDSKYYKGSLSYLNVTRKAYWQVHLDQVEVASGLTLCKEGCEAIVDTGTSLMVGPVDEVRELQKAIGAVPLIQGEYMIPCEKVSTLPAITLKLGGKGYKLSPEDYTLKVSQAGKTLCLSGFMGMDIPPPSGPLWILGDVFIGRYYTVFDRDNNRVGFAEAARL
Description: A substrate peptide NH3-ELDLAVEFWHDR-CO2 (SEQ ID NO.:1) (used for inhibition assay of memapsin 2, memapsin 1, and cathepsin D) was dissolved at 2 mg/ml in DMSO and diluted 1:100 in 0.1 M sodium acetate, pH 4.0 just prior to assay. Inhibitor dissolved in DMSO was diluted into 0.1 M sodium acetate, pH 4.0 (1:100 dilution). A […] aliquot of the inhibitor solution in pH 4 buffer was combined with […] of 0.1 M sodium acetate containing 100-200 nM of memapsin 1, memapsin 2, or cathepsin D. Following a pre-incubation at 37° C., the proteolytic assay was initated by addition of […] of the substrate diluted into pH 4 buffer, and incubation continued at 37° C. Aliquots were removed at time intervals, and combined with an equal volume of MALDI-TOF matrix (α-hydroxycinnamic acid in acetone, 20 mg/ml) and immediately spotted in duplicate onto a stainless-steel MALDI sample plate. MALDI-TOF mass spectrometry was performed on a PE Biosystems Voyager DE instrument at the Molecular Biology Resource Center on campus. The instrument was operated at 25,000 accelerating volts in positive mode with a 150 ns delay. Ions with a mass-to-charge ratio (m/z) were detected in the range of 650-2000 atomic mass units. Data were analyzed by the Voyager Data Explorer module to obtain ion intensity data for mass species of substrates and corresponding products in a given mixture. Relative product formation was calculated as the ratio of signal intensity of the product to the sum of signal intensities of both product and the corresponding substrate. Relative product formed per unit time was obtained from non-linear regression analysis of the data representing the initial 15% formation of product using the model: 1−e^−kT, where k was the relative hydrolytic rate constant and T was time in seconds. Alternatively, relative hydrolytic rates were determined using a fluorogenic cleavage assay (Ermolieff, J. et al., Biochemistry, 39: 12450-12456 (2000)). Initial rates from either method were expressed relative to uninhibited controls and the inhibition constant Ki was determined by a non-linear fit to a tight-binding model of competitive inhibition (Bieth, J., Bayer-Symposium V: Proteinase Inhibitors, pp 463-469, Spinger-Varlag, Berlin (1994)). Results are shown in Table 1 above (M2K, CDK, and M1K columns represent, respectively, the K1 values obtained for memapsin 2, cathepsin D and memapsin 1).

[3] = tested on: Aβ production in Chinese hamster ovary cells that over-express human APP695 with the London and Swedish mutations; assay: Cellular Aβ IC50 determination (Aβ40 sandwich ELISA); details: 24 h
[4] = Cricetulus griseus, CHO, read-out: Cell, Aβ40, CHO cells over-expressing human APP695 (London and Swedish mutations), 24 h

Sequence of memapsin 2 (P56817 46-501): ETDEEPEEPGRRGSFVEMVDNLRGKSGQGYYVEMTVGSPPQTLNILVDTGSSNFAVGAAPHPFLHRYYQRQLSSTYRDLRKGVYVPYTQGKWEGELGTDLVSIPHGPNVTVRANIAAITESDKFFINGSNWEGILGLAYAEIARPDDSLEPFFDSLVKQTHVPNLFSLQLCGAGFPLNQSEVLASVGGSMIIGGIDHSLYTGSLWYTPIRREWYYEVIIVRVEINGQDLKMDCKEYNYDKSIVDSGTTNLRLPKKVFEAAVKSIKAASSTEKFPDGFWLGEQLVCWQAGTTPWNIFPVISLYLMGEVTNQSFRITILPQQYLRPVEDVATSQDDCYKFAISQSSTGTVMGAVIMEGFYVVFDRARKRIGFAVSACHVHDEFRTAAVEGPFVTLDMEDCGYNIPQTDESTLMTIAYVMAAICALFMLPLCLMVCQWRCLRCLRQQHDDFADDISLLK

Compound: COc1cccc(CNCC(O)C(Cc2ccccc2)NC(=O)c2cccc(C(=O)N(Cc3nc(C)cs3)N(C)C)c2)c1 (stereo not shown) [3-(2,2-dimethyl-1-((4-methylthiazol-2-yl)methyl)hydrazinecarbonyl)-N-(3-hydroxy-4-(3-methoxybenzylamino)-1-phenylbutan-2-yl)benzamide]
- Ki [1]: > 501 nM
- Ki [2]: > 501 nM
- IC50 [3, 4]: > 5000 nM

Compound: CC(NC(=O)c1cc(C(=O)NC(Cc2ccccc2)C(O)CNCCN2CCOCC2)cc(N(C)S(C)(=O)=O)c1)c1ccccc1 (stereo not shown) [N1-(3-hydroxy-4-(2-morpholinoethylamino)-1-phenylbutan-2-yl)-5-(N-methylmethylsulfonamido)-N3-(1-phenylethyl)isophthalamide]
- Ki [1]: 301 to 500 nM
- Ki [2]: > 501 nM
- IC50 [3, 4]: 1000 to 5000 nM

Compound: COc1cccc(CCNCC(O)C(Cc2ccccc2)NC(=O)c2cccc(C(=O)N(C)Cc3nc(C)cs3)c2)c1 (stereo not shown) [N1-(3-hydroxy-4-(3-methoxyphenethylamino)-1-phenylbutan-2-yl)-N3-methyl-N3-((4-methylthiazol-2-yl)methyl)isophthalamide]
- Ki [1]: > 501 nM
- Ki [2]: 301 to 500 nM
- IC50 [3, 4]: > 5000 nM

Compound: Cc1csc(CN(C)C(=O)c2cccc(C(=O)NC(Cc3ccccc3)C(O)CNCc3cc(C)on3)c2)n1 (stereo not shown) [N1-(3-hydroxy-4-((5-methylisoxazol-3-yl)methylamino)-1-phenylbutan-2-yl)-N3-methyl-N3-((4-methylthiazol-2-yl)methyl)isophthalamide]
- Ki [1]: 301 to 500 nM
- Ki [2]: 301 to 500 nM
- IC50 [3, 4]: 1000 to 5000 nM

Compound: Cc1ccc(CNCC(O)C(Cc2ccccc2)NC(=O)c2cc(C(=O)NC(C)c3ccccc3)cc(N(C)S(C)(=O)=O)c2)o1 (stereo not shown) [N1-(3-hydroxy-4-((5-methylfuran-2-yl)methylamino)-1-phenylbutan-2-yl)-5-(N-methylmethylsulfonamido)-N3-(1-phenylethyl)isophthalamide]
- Ki [1]: < 300 nM
- Ki [2]: < 300 nM

Compound: CC(NC(=O)c1cc(C(=O)NC(Cc2ccccc2)C(O)CNC(C)C2CCCCC2)cc(N(C)S(C)(=O)=O)c1)c1ccccc1 (stereo not shown) [N1-(4-(1-cyclohexylethylamino)-3-hydroxy-1-phenylbutan-2-yl)-5-(N-methylmethylsulfonamido)-N3-(1-phenylethyl)isophthalamide]
- Ki [1]: < 300 nM
- Ki [2]: < 300 nM
- IC50 [3, 4]: < 1000 nM

Compound: COc1cccc(CNCC(O)C(Cc2ccccc2)NC(=O)c2cc(C(=O)NCc3cncc(O)c3)cc(N(C)S(C)(=O)=O)c2)c1 (stereo not shown) [N1-(3-hydroxy-4-(3-methoxybenzylamino)-1-phenylbutan-2-yl)-N3-((5-hydroxypyridin-3-yl)methyl)-5-(N-methylmethylsulfonamido)isophthalamide]
- Ki [1]: > 501 nM
- Ki [2]: > 501 nM
- IC50 [3, 4]: < 1000 nM

Compound: CCc1cccc(CNCC(O)C(Cc2ccccc2)NC(=O)c2cc(C(=O)NC(C)c3ccccc3)cc(N(C)S(C)(=O)=O)c2)c1 (stereo not shown) [N1-(4-(3-ethylbenzylamino)-3-hydroxy-1-phenylbutan-2-yl)-5-(N-methylmethylsulfonamido)-N3-(1-phenylethyl)isophthalamide]
- Ki [1]: < 300 nM
- Ki [2]: < 300 nM
- IC50 [3, 4]: < 1000 nM

Compound: CC(NC(=O)c1cc(C(=O)NC(Cc2ccccc2)C(O)CNCc2cnccn2)cc(N(C)S(C)(=O)=O)c1)c1ccccc1 (stereo not shown) [N1-(3-hydroxy-1-phenyl-4-(pyrazin-2-ylmethylamino)butan-2-yl)-5-(N-methylmethylsulfonamido)-N3-(1-phenylethyl)isophthalamide]
- Ki [1]: < 300 nM
- Ki [2]: > 501 nM
- IC50 [3, 4]: < 1000 nM

Compound: CC(NC(=O)c1cc(C(=O)NC(Cc2ccccc2)C(O)CNCc2cccc(OC(F)F)c2)cc(N(C)S(C)(=O)=O)c1)c1ccccc1 (stereo not shown) [N1-(4-(3-(difluoromethoxy)benzylamino)-3-hydroxy-1-phenylbutan-2-yl)-5-(N-methylmethylsulfonamido)-N3-(1-phenylethyl)isophthalamide]
- Ki [1]: < 300 nM
- Ki [2]: < 300 nM
- IC50 [3, 4]: < 1000 nM

Compound: N3-(3-hydroxy-4-(3-methoxybenzylamino)-1-phenylbutan-2-yl)-4- or 6-methyl-N1-(1-phenylethyl)isophthalamide
- Ki [2]: < 300 nM
- IC50 ([3]; read-out: Cell, Aβ40, CHO cells over-expressing human APP695 (London and Swedish mutations)): 1000 to 5000 nM

Compound: CCc1cccc(CNCC(O)C(Cc2ccccc2)NC(=O)c2cccc(C(=O)N(C)Cc3nc(C)cs3)c2)c1 (stereo not shown) [N1-(4-(3-ethylbenzylamino)-3-hydroxy-1-phenylbutan-2-yl)-N3-methyl-N3-((4-methylthiazol-2-yl)methyl)isophthalamide]
- Ki [1]: < 300 nM
- Ki [2]: < 300 nM
- IC50 [3, 4]: < 1000 nM

Compound: COc1cccc(C(C)NCC(O)C(Cc2ccccc2)NC(=O)c2cc(C(=O)NC(C)c3cccc(OC)c3)cc(N(C)S(C)(=O)=O)c2)c1 (stereo not shown) [N1-(3-hydroxy-4-(1-(3-methoxyphenyl)ethylamino)-1-phenylbutan-2-yl)-N3-(1-(3-methoxyphenyl)ethyl)-5-(N-methylmethylsulfonamido)isophthalamide]
- Ki [1]: < 300 nM
- Ki [2]: < 300 nM
- IC50 [3, 4]: < 1000 nM

Compound: 4- or 6-fluoro-N3-(3-hydroxy-4-(3-methoxybenzylamino)-1-phenylbutan-2-yl)-N1-(1-phenylethyl)isophthalamide
- Ki [1]: > 501 nM
- Ki [2]: < 300 nM

Compound: CC(C)Oc1cncc(CNCC(O)C(Cc2ccccc2)NC(=O)c2cc(C(=O)NC(C)c3ccccc3)cc(N(C)S(C)(=O)=O)c2)c1 (stereo not shown) [N1-(3-hydroxy-4-((5-isopropoxypyridin-3-yl)methylamino)-1-phenylbutan-2-yl)-5-(N-methylmethylsulfonamido)-N3-(1-phenylethyl)isophthalamide]
- Ki [1]: < 300 nM
- Ki [2]: < 300 nM
- IC50 [3, 4]: < 1000 nM

Compound: CC(NCC(O)C(Cc1ccccc1)NC(=O)c1cc(C(=O)NC(C)c2ccccc2)cc(N(C)S(C)(=O)=O)c1)c1cccc(F)c1 (stereo not shown) [N1-(4-(1-(3-fluorophenyl)ethylamino)-3-hydroxy-1-phenylbutan-2-yl)-5-(N-methylmethylsulfonamido)-N3-(1-phenylethyl)isophthalamide]
- Ki [1]: < 300 nM
- Ki [2]: < 300 nM

Compound: COc1cccc(CCNCC(O)C(Cc2ccccc2)NC(=O)c2cc(C(=O)NC(C)c3ccccc3)cc(N(C)S(C)(=O)=O)c2)c1 (stereo not shown) [N1-(3-hydroxy-4-(3-methoxyphenethylamino)-1-phenylbutan-2-yl)-5-(N-methylmethylsulfonamido)-N3-(1-phenylethyl)isophthalamide]
- Ki [1]: < 300 nM
- Ki [2]: < 300 nM

Compound: CC(NC(=O)c1cc(C(=O)NC(Cc2ccccc2)C(O)CNCc2cccc(OC(F)(F)F)c2)cc(N(C)S(C)(=O)=O)c1)c1ccccc1 (stereo not shown) [N1-(3-hydroxy-1-phenyl-4-(3-(trifluoromethoxy)benzylamino)butan-2-yl)-5-(N-methylmethylsulfonamido)-N3-(1-phenylethyl)isophthalamide]
- Ki [1]: < 300 nM
- IC50 [3, 4]: < 1000 nM

Compound: CNc1cccc(CNCC(O)C(Cc2ccccc2)NC(=O)c2cc(C(=O)NC(C)c3ccccc3)cc(N(C)S(C)(=O)=O)c2)c1 (stereo not shown) [N1-(3-hydroxy-4-(3-(methylamino)benzylamino)-1-phenylbutan-2-yl)-5-(N-methylmethylsulfonamido)-N3-(1-phenylethyl)isophthalamide]
- Ki [2]: < 300 nM

Compound: COc1cccc(CNCC(O)C(Cc2cscn2)NC(=O)c2cc(C(=O)NC(C)c3ccccc3)cc(N(C)S(C)(=O)=O)c2)c1 (stereo not shown) [N1-(3-hydroxy-4-(3-methoxybenzylamino)-1-(thiazol-4-yl)butan-2-yl)-5-(N-methylmethylsulfonamido)-N3-(1-phenylethyl)isophthalamide]
- Ki [1]: < 300 nM
- IC50 [3, 4]: < 1000 nM

Compound: CC(NC(=O)c1cc(C(=O)NC(Cc2ccccc2)C(O)CNCc2cccn2COCC[Si](C)(C)C)cc(N(C)S(C)(=O)=O)c1)c1ccccc1 (stereo not shown) [N1-(3-hydroxy-1-phenyl-4-((1-((2-(trimethylsilyl)ethoxy)methyl)-1H-pyrrol-2-yl)methylamino)butan-2-yl)-5-(N-methylmethylsulfonamido)-N3-(1-phenylethyl)isophthalamide]
- Ki [1]: 301 to 500 nM
- IC50 ([3]; Cricetulus griseus, CHO, read-out: Cell): < 1000 nM

Compound: COc1ccc(CCNCC(O)C(Cc2ccccc2)NC(=O)c2cc(C(=O)NC(C)c3ccccc3)cc(N(C)S(C)(=O)=O)c2)cc1O (stereo not shown) [N1-(3-hydroxy-4-(3-hydroxy-4-methoxyphenethylamino)-1-phenylbutan-2-yl)-5-(N-methylmethylsulfonamido)-N3-(1-phenylethyl)isophthalamide]
- Ki [1]: < 300 nM
- IC50 [3, 4]: 1000 to 5000 nM
